≈ marks a conversion by molar mass, not a printed value. Like-named read-outs stand apart in the source and are kept apart here.
Assays:
E. coli PBP3 = E. coli PBP3 (Escherichia coli (strain K12), UniProt P0AD68); experiment: E. coli PBP3 Bocillin-FL fluorescence polarization competition binding assay
In short: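 Competition against 0.1 μM Bocillin-FL for binding to 1.5 μM purified protein, read by fluorescence polarization for 60 min. Compounds tested from 0 to 1000 μM; EC50 taken as the concentration reducing probe binding.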

E. coli PBP2 = E. coli PBP2 (Escherichia coli (strain K12), UniProt P0AD65); experiment: E. coli PBP2 Bocillin-FL fluorescence polarization competition binding assay; conditions: fluorescence polarization competition binding with Bocillin-FL; read-out: E. coli K12 PBP2 Potency (EC50)
Chain of E. coli PBP2 (P0AD65 whole entry): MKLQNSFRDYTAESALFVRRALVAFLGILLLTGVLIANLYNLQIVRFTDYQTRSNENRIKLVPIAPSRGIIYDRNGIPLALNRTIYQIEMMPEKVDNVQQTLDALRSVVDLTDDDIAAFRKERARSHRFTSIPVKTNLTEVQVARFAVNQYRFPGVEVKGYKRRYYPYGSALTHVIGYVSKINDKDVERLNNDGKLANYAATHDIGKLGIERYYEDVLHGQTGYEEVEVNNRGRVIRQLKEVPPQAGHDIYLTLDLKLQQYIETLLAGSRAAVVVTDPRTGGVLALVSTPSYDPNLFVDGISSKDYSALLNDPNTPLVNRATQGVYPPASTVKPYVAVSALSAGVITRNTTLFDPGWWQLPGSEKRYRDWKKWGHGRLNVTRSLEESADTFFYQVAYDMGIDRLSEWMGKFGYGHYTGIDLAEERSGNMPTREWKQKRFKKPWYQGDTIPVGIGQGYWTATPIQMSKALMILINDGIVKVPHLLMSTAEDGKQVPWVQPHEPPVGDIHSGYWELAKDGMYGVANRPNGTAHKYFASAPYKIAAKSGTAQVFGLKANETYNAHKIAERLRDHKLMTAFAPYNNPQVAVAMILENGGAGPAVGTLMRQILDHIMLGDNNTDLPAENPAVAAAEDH
Text: To determine the ability of boronic acid-based test PBP inhibitors to bind Penicillin Binding Proteins (PBPs), Bocillin-FL (fluorescently-labeled penicillin V; ThermoFisher Scientific) was used in a fluorescence polarization (FP) competition binding assay to assess inhibitor binding to PBP2, PBP3 or PBP4 from Escherichia coli. PBPs were cloned and purified as described previously (King, D. T, et al., ACS Infectious Diseases 2015, 1, 175-184). To establish assay conditions for competition binding, an enzyme titration/saturation binding experiment was initially performed. Bocillin-FL was prepared at 0.2 μM in a buffer comprised of 50 mM Hepes (pH 8.0), 300 mM NaCl and 5% (v/v) glycerol. Saturation binding was performed by mixing 40 μl of PBP solutions ranging in concentrations from 0-12 μM with 40 μl of the 0.2 μM Bocillin-FL solution, in individual wells of a black 384-well microplate. FP was measured immediately upon mixing (Excitation, 490 nm; Emission, 520 nm; g-factor, 0.96), using a Cytation3 (BioTek) microplate reader and measured continuously for up to 120 minutes. […] For all PBPs the FP signal approached saturation with 1.5 μM PBP (final concentration). […] Assays (80 μl final volume) were performed with PBPs at a final concentration of 1.5 μM, Bocillin-FL at 0.1 μM and beta-lactam concentrations that ranged from 0-1000 μM. […] Bocillin-FL was added and the FP immediately measured for 60 minutes (90 minutes for PBP2). The beta-lactam potency was reported as the concentration of beta-lactam required to reduce binding of Bocillin-FL by […] (EC50). […] Binding assays for boronic acid PBP inhibitors were performed in an identical fashion.

E. coli PBP1a = E. coli PBP1a (Escherichia coli (strain K12), UniProt P02918); experiment: Radioligand competition binding assay with 14C-labeled boronic acid probe, PBP1a
Chain of E. coli PBP1a (P02918 whole entry): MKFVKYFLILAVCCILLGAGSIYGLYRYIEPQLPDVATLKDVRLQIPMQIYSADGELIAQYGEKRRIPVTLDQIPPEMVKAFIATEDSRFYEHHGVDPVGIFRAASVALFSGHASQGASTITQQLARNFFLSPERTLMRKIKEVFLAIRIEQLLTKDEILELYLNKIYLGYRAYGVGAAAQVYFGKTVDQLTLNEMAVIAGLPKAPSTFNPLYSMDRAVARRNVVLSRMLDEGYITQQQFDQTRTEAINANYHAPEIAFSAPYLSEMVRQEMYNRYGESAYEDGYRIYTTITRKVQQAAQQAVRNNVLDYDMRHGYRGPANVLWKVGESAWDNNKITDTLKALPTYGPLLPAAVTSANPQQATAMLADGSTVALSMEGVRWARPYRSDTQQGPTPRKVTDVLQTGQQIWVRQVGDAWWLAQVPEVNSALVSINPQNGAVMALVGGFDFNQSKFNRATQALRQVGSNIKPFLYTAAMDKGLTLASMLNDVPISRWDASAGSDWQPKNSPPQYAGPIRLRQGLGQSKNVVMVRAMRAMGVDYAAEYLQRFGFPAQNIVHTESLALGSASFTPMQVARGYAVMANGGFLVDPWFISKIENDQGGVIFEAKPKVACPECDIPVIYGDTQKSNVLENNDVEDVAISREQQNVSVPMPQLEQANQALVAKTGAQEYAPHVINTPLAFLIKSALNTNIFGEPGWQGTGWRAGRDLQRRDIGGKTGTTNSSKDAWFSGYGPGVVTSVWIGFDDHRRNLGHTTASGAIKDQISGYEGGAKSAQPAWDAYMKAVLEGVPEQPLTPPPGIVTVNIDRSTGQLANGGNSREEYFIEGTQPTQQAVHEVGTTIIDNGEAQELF
Text: To determine the ability of boronic acid-based test PBP inhibitors to bind Penicillin Binding Proteins (PBPs), a radio-labelled boronic acid PBP inhibitor
[drawing 751] was used in competition binding assays to determine boronic acid PBP inhibitor binding to PBP1a or PBP1b from Escherichia coli. PBP1a and PBP1b were purified as described previously (Bertsche, U.; et al., J. Biol. Chem. 2005, 280 (45), 38096-38101; Born, P.; et al., J. Biol. Chem. 2006. 281 (37), 26985-26993). To establish assay conditions for competition binding, an enzyme titration/saturation binding experiment was performed. Saturation binding was performed in a buffer comprised of 20 mM Tris (pH 7.5), 500 mM NaCl and 0.1% (v/v) TritonX-100, with PBP1a/PBP1b at a final concentration of 0.1 μM and Compound A at final concentrations ranging from 0-100 μM. Mixtures were incubated for 60 minutes, then applied to Zeba Spin Desalting columns or plates (ThermoFisher Scientific) and centrifuged at 1000-1500×g for 2 minutes. The flow through, containing PBP bound with Compound A, was recovered and 100 μL mixed with 5 mL of UltimaGold liquid scintillation cocktail (Perkin Elmer), and the radioactivity counted using a Beckman Coulter LS 6500 Multipurpose scintillation counter. PBP binding of Compound A approached saturation at 20 μM of ^14C-labeled probe. The competition binding assay was validated using the beta-lactam ampicillin, with Compound A at a final concentration of 20 μM, PBP1a/PBP1b at a final concentration of 0.1 μM. PBP1a/PBP1b was incubated with ampicillin in a 96-well microplate for 60 minutes, then Compound A was added and the mixtures incubated for an additional 60 minutes. The mixtures were then applied to Zeba Spin desalting plates and centrifuged at 1000×g for 2 minutes. The flow through was recovered and 100 μl mixed with 5 ml of UltimaGold liquid scintillation cocktail and the radioactivity counted. […] Binding assays with boronic acid PBP inhibitors were performed in an identical fashion. The potency of boronic acid PBP inhibitors was reported as the EC50 value.

[1] = system: engineered strain of Escherichia coli harboring CTX-M15; experiment: microbe, parasite or virus in culture; assay type: cell-based; conditions: Escherichia coli, read-out: Microbiological Activity (MIC in mg/L), E. coli DH5α/pLBII-CTX-M15, engineered strain producing CTX-M15
[2] = system: E. coli DH5α empty pLBII vector control strain; experiment: microbe, parasite or virus in culture; assay type: cell-based, Escherichia coli; conditions: Escherichia coli, read-out: Microbiological Activity (MIC in mg/L), E. coli DH5α/pLBII
In short: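 MIC was the lowest concentration visibly free of growth after 16–20 h at 37 °C, against 5×10^5 CFU/mL of the empty-pLBII DH5α control strain. Twofold compound dilutions were made in cation-adjusted Mueller-Hinton broth.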

E. coli ATCC 25922 = experiment: Broth microdilution MIC, E. coli ATCC 25922; assay type: cell-based; conditions: Escherichia coli
In short: (§1)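 Strains are tested by standard CLSI broth microdilution. Log-phase cells, diluted by OD600 to 5×10^5 CFU/mL, meet 2-fold compound series and incubate 16-20 hours at 37° C before the lowest growth-free concentration is recorded.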

E. coli AG100 = experiment: Broth microdilution MIC, E. coli AG100 (wild-type parent); assay type: cell-based; conditions: Escherichia coli; wild-type parent E. coli AG100, broth microdilution; read-out: MIC E. coli AG100
In short: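 Starting inoculum of 5×10^5 CFU/mL, from colonies grown 3-5 h in Mueller-Hinton broth with divalent cations, added to two-fold compound dilution series.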

E. coli 901C = experiment: microbe, parasite or virus in culture; assay type: cell-based; conditions: Escherichia coli; hyper-permeable E. coli 901C, broth microdilution; read-out: MIC E. coli 901C
In short: as §1

E. coli AG100A = experiment: microbe, parasite or virus in culture; assay type: cell-based; conditions: Escherichia coli, read-out: MIC E. coli AG100A
In short: as §1

E. coli D22 = experiment: microbe, parasite or virus in culture; assay type: cell-based; conditions: Escherichia coli; hyper-permeable E. coli D22, broth microdilution; read-out: MIC E. coli D22
In short: as §1

K. pneumoniae SI-117 = experiment: microbe, parasite or virus in culture; assay type: cell-based; conditions: Klebsiella pneumoniae, SI117, read-out: MIC K. pneumoniae SI-117
In short: as §1

K. pneumoniae UMM = experiment: microbe, parasite or virus in culture; assay type: cell-based; conditions: Klebsiella pneumoniae; K. pneumoniae UMM producing SHV-5 and KPC-2; read-out: MIC K. pneumoniae UMM
In short: as §1

[3] = system: P. aeruginosa (ΔmexAB-oprM); experiment: microbe, parasite or virus in culture; assay type: cell-based; conditions: Pseudomonas aeruginosa, read-out: MIC P. aeruginosa ΔmexAB-OprM
In short: as §1

P. aeruginosa ATCC 35151 = experiment: microbe, parasite or virus in culture; assay type: cell-based; conditions: Pseudomonas aeruginosa, ATCC35151; hyper-permeable P. aeruginosa ATCC 35151; read-out: MIC P. aeruginosa ATCC 35151
In short: as §1

K. pneumoniae 848844 = experiment: microbe, parasite or virus in culture; assay type: cell-based, Klebsiella pneumoniae; conditions: Klebsiella pneumoniae; K. pneumoniae 848844 producing SHV-11 and KPC-2; read-out: MIC K. pneumoniae 848844
In short: as §1

P. aeruginosa ATCC 27853 = experiment: Broth microdilution MIC, P. aeruginosa ATCC 27853; assay type: cell-based; conditions: Pseudomonas aeruginosa
Protocol: To determine the ability of test compounds to potentiate the inhibition of the growth of bacterial strains, classic cell based broth microdilution minimum inhibitory concentration (MIC) assays were employed. MIC assays are performed according to CLSI methods except where otherwise noted (CLSI, 2011 and CLSI, 2009). The reference type strain E. coli ATCC 25922, the wild-type parent strain E. coli AG100, the hyper-permeable E. coli 901C and E. coli D22 and the E. coli AG100A strain lacking the acrAB efflux pump encoding genes were used to determine the ability of the PBP inhibitors to penetrate the outer membrane of gram-negative bacteria and inhibit bacterial growth. […] The P. aeruginosa PAO1, P. aeruginosa ATCC 27853 and A. baumannii ATCC 19606, along with the hyper-permeable P. aeruginosa ATCC 35151 and an engineered efflux pump-compromised strain of P. aeruginosa (ΔmexAB-oprM) were used to determine the ability of PBP inhibitors to penetrate the outer membrane of P. aeruginosa and A. baumannii and assess antibacterial activity against these important gram-negative organisms.
Briefly, cryo-preserved bacterial cultures of challenge strains are streaked for isolation on appropriate agar medium, in this case Mueller Hinton II agar. Following incubation to allow growth of the colonies, plates are sealed with parafilm and stored refrigerated for up to two weeks. For preparation of assay inoculum and to ensure low variability, at least 5 colonies are picked from the agar plates with an inoculating loop and aseptically transferred to a culture tube containing 3 mL of Mueller-Hinton Broth (supplemented with divalent cations to required levels based on Manufacturers' certification). The broth culture is grown for 3-5 hours at 37° C. with shaking at 200 rpm. Meanwhile, 2-fold serial dilutions of test compounds are conducted in a 96 well plate with a final volume of 75 μL per well at 2-fold the final desired concentration. After the dilution plates are set up the growing cultures are then diluted in a cuvette containing MH II broth and the optical density is measured at 600 nm. The Inoculum is diluted such that 75 μL of this culture in Mueller-Hinton Broth results in a starting bacterial concentration of 5×10^5 CFU/mL when added to the dilution plates. The plates are incubated for 16-20 hours at 37° C. The MIC values are read visually as the lowest concentration well with no bacterial growth.

A. baumannii ATCC 19606 = experiment: Broth microdilution MIC, A. baumannii ATCC 19606; assay type: cell-based; conditions: Acinetobacter baumannii
In short: as §1

[4] = ATCC25922, E. coli ATCC 25922, broth microdilution, read-out: MIC E. coli 25922
[5] = ATCC27853, P. aeruginosa ATCC 27853, broth microdilution, read-out: MIC P. aeruginosa ATCC 27853
[6] = ATCC19606, A. baumannii ATCC 19606, broth microdilution, read-out: MIC A. baumannii ATCC 19606

Chain of E. coli PBP3 (P0AD68 whole entry): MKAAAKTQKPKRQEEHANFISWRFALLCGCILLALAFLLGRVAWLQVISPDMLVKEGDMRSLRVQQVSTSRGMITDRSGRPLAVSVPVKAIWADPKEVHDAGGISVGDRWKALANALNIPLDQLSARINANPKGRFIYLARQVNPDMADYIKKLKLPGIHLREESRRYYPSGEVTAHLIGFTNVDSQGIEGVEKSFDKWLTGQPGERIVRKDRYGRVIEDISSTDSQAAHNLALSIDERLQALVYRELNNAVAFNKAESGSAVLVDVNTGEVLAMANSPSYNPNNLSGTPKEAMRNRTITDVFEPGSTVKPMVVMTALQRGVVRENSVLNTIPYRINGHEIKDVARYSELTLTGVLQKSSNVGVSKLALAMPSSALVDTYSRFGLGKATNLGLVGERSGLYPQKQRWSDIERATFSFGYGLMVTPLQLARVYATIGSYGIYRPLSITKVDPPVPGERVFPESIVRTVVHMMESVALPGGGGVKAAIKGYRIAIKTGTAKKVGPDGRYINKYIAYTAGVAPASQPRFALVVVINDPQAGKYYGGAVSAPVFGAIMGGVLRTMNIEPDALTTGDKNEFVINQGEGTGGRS

SMILES | EC50 (E. coli PBP3) | MIC (E. coli AG100) | MIC (E. coli 901C) | MIC (E. coli AG100A) | MIC (E. coli D22) | MIC (K. pneumoniae SI-117) | MIC (K. pneumoniae UMM) | MIC [3] | MIC (P. aeruginosa ATCC 35151) | MIC (E. coli ATCC 25922; [4]) | MIC (P. aeruginosa ATCC 27853; [5]) | MIC (A. baumannii ATCC 19606; [6]) | other results
CCN1CCN(C(=O)NC(C(=O)N[C@H]2Cc3cccc(C(=O)O)c3OB2O)c2ccc(OC)nc2)C(=O)C1=O (stereo partly drawn) [Example 34, (3R)-3-(2-(4-ethyl-2,3-dioxopiperazine-1-carboxamido)-2-(6-methoxypyridin-3-yl)acetamido)-2-hydroxy-3,4-dihydro-2H-benzo[e][1,2]oxaborinine-8-carboxylic acid] | 30 to 500 µM |  |  |  |  |  |  |  |  |  |  |  | EC50 (E. coli PBP2): > 500 µM; EC50 (E. coli PBP1a): < 10 µM; MIC [1]: 128 to 256 mg/L (≈ 237 to 475 µM); MIC [2]: 128 to 256 mg/L (≈ 237 to 475 µM)
CCN1C[C@H](CCN)N(C(=O)NC(C(=O)N[C@H]2Cc3cccc(C(=O)O)c3OB2O)c2ncc(O)cc2F)C(=O)C1=O (stereo partly drawn) [Example 240, (3R)-3-(2-((S)-6-(2-aminoethyl)-4-ethyl-2,3-dioxopiperazine-1-carboxamido)-2-(3-fluoro-5-hydroxypyridin-2-yl)acetamido)-2-hydroxy-3,4-dihydro-2H-benzo[e][1,2]oxaborinine-8-carboxylic acid] |  | > 128 µg/mL | 8 to 16 µg/mL | 8 to 16 µg/mL | 8 to 16 µg/mL | > 128 µg/mL | > 128 µg/mL | > 128 µg/mL | 8 to 16 µg/mL |  |  |  | MIC (E. coli ATCC 25922; ATCC25922, read-out: MIC E. coli 25922): > 128 µg/mL; MIC (K. pneumoniae 848844): > 128 µg/mL; MIC (P. aeruginosa ATCC 27853; ATCC27853, read-out: MIC P. aeruginosa ATCC 27853): > 128 µg/mL; MIC (A. baumannii ATCC 19606; ATCC19606, read-out: MIC A. baumannii ATCC 19606): > 128 µg/mL
CCN1CCN(C(=O)NC(C(=O)N[C@H]2Cc3cccc(C(=O)O)c3OB2O)c2ncc(C(N)=O)cc2F)C(=O)C1=O (stereo partly drawn) [Example 246, (3R)-3-(2-(5-carbamoyl-3-fluoropyridin-2-yl)-2-(4-ethyl-2,3-dioxopiperazine-1-carboxamido)acetamido)-2-hydroxy-3,4-dihydro-2H-benzo[e][1,2]oxaborinine-8-carboxylic acid] | 30 to 500 µM | > 128 µg/mL | 2 to 4 µg/mL | 32 to 64 µg/mL | 32 to 64 µg/mL | > 128 µg/mL | > 128 µg/mL | 32 to 64 µg/mL | 2 to 4 µg/mL | > 128 µg/mL | > 128 µg/mL | > 128 µg/mL | 
CCN1CCN(C(=O)NC(C(=O)N[C@H]2Cc3cccc(C(=O)O)c3OB2O)c2ccc(O)c([N+](=O)[O-])c2)C(=O)C1=O (stereo partly drawn) [Example 247, (3R)-3-(2-(4-ethyl-2,3-dioxopiperazine-1-carboxamido)-2-(4-hydroxy-3-nitrophenyl)acetamido)-2-hydroxy-3,4-dihydro-2H-benzo[e][1,2]oxaborinine-8-carboxylic acid] |  | 32 to 64 µg/mL | < 0.25 µg/mL | 2 to 4 µg/mL | 2 to 4 µg/mL | > 128 µg/mL | > 128 µg/mL | 8 to 16 µg/mL | 0.5 to 1 µg/mL | 32 to 64 µg/mL | > 128 µg/mL | > 128 µg/mL | EC50 (E. coli PBP3; fluorescence polarization competition binding with Bocillin-FL, read-out: E. coli K12 PBP3 Potency): < 30 µM

Source: patent publication US12173018B2, “Penicillin-binding protein inhibitors” (priority 2018, dated 2024)
